In patent publication US20170196868A1, “METHODS AND COMPOSITIONS FOR TREATMENT OF HER-POSITIVE CANCERS” (UNIVERSITY OF SOUTH CAROLINA, priority 2014, published 2017):
Where “and” joins values, the source holds several entries; their conditions need not be identical. Identical values can stand only once.

Experiments:
Type in all cases: cell-based
[1] = tested on: BT474, a ER+HER2+ breast cancer cell line; test: MTT assay for relative cell number, drug combination analysis (CompuSyn CI)
Experimental: (§1) FIG. 1 presents an analysis of the nature of the interaction between CDK8/19 inhibitor Senexin B (a.k.a. SNX2-1-165) developed and owned by Senex Biotechnology, Inc.) and a HER2-specific monoclonal antibody (a biosimilar of trastuzumab from Biocad, Strelna, Russia) in BT474, a ER+HER2+ breast cancer cell line. In these experiments, 2000 cells/well were plated in each well of 96 well plates. […] Treatment was repeated after 3 days, and the MTT assay for relative cell number was performed after the total of 7 days of treatment. The Combination Index (CI) values were calculated using CompuSyn® (www.combosyn.com), a web tool based on the principles described in Chou (2006). […] Similar analysis was conducted for the interaction between Senexin B and lapatinib (LAP), a small-molecule inhibitor of both HER2 and EGFR, in the same cells; using a SNXB:LAP molar ratio of 10:1.

ER-HER2+ cell line SKBR3 = test: as above; settings: Senexin B + lapatinib; three experiments
Experimental: as §1
The same analysis was then conducted using an ER-HER2+ cell line SKBR3 (cells were plated at 1,500 cells per well).

[2] = tested on: ER-HER2+ breast cancer cell line HCC-1419; test: as above
Experimental: (§2) In these experiments, 2000 cells/well were plated in each well of 96 well plates. […] Treatment was repeated after 3 days, and the MTT assay for relative cell number was performed after the total of 7 days of treatment. The Combination Index (CI) values were calculated using CompuSyn® (www.combosyn.com), a web tool based on the principles described in Chou (2006).
(§3) The same analysis as above was conducted in ER-HER2+ breast cancer cell line HCC-1419 which, despite high levels of HER2, is intrinsically resistant to trastuzumab but sensitive to lapatinib; this pattern of resistance has been associated with activated phosphoinositide 3-kinase/AKT signaling (O'Brien et al., 2010). We also analyzed ER-HER2+ breast cancer cell line JIMT-1, which is intrinsically resistant to both trastuzumab and lapatinib.

[3] = tested on: ER-HER2+ breast cancer cell line JIMT-1; test: as above
Experimental: as §2, §3

[4] = tested on: lapatinib-selected SKBR3-LT cells; test: Sensitivity of lapatinib-selected cells versus parental SKBR3, 7-day treatment; settings: 7 days
[5] = tested on: HER2+ colon cancer cell line HCT-116; test: MTT assay for relative cell number, drug combination analysis (CompuSyn CI); settings: for response of cells to drug alone: single agent
Experimental: as §1
(§4) To determine if CDK8/19 inhibition affects the response of HER2+ colon cancer cells to lapatinib, we conducted the same type of analysis as above on two HER2+ colon cancer cell lines, HCT-116 and HT-29 (both plated at 1500 cells per well).

[6] = tested on: HER2+ colon cancer cell line HT-29; test: as above; settings: for response of cells to drug alone: single agent
Experimental: as §1, §4

[7] = tested on: BT474 (ER+HER2+) breast cancer cell line; test: Emergence of lapatinib resistance, continuous exposure for 16 weeks, crystal violet staining; settings: for inhibition of cell growth after 1 week of treatment: single agent, 2.5 μM Senexin B or 250 nM lapatinib
Description: (§5) A major problem for chemotherapy in general and for molecularly targeted drugs in particular is the development of drug resistance. The ability to prevent the development of drug resistance could allow sustained response to targeted drugs and transform the outcome of cancer therapy. Since CDK8 is a key mediator of transcriptional reprogramming (Galbraith et al., 2010, 2013), we hypothesized that CDK8 inhibition may prevent the induction of transcription that may be associated with epigenetic acquisition of drug resistance. To test this hypothesis, we plated BT474 (ER+HER2+) and SKBR3 (ER-HER2+) breast cancer cell lines at 250,000 cells per T25 flask, and the cells were continuously exposed to 2.5 μM Senexin B, 250 nM lapatinib, alone and in combination, for a period of 16 weeks, changing drug-containing media twice a week. At selected time points, cells in flasks were fixed with methanol:acetic acid and stained with crystal violet. The results for BT474 are shown in FIG. 9 and for SKBR3 in FIG. 10. […] However, by week 4 (in the case of BT474) or week 8 (in the case of SKBR3), the outgrowth of cells treated with lapatinib alone became noticeable compared to cells treated with lapatinib+Senexin B combination.

[8] = tested on: SKBR3 (ER-HER2+) breast cancer cell line; test: as above; settings: for inhibition of cell growth after 1 week of treatment: single agent, 2.5 μM Senexin B or 250 nM lapatinib
Description: as §5

[9] = tested on: BT474 breast cancer cells; test: Emergence of erlotinib resistance, continuous treatment for 35 days
Experimental: We conducted a similar experiment with BT474 breast cancer cells continuously treated with erlotinib, an inhibitor of EGFR, another member of the same HER family as HER2/Neu. 600,000 cells per T75 flask were plated in the continuous presence of […] erlotinib, […] Senexin B, or a combination of both (changing drug-containing media twice a week). […] The macroscopic and microscopic views of the corresponding samples after 35 days of treatment are shown in FIG. 11 and FIG. 12, respectively.

[10] = Senexin B + trastuzumab biosimilar (TRAST)
[11] = combination of Senexin B and lapatinib
[12] = combination of 250 nM lapatinib and 2.5 μM Senexin B
[13] = 250 nM lapatinib alone, compared to lapatinib+Senexin B combination

**Q.** `CN1CCN(C(=O)c2ccc3cc(CCNc4ncnc5ccc(C#N)cc45)ccc3c2)CC1` [Senexin B] was tested. Which “IC75 CI (Combination Index)” value ([1]; Senexin B (SNXB) + trastuzumab biosimilar (HER), fixed ratio 100 nM SNXB:1 μg/ml HER, 7 days, first experiment) did it give?
**A.** 0.019

**Q.** What about the “IC50 CI (Combination Index)” value ([1]; Senexin B + lapatinib (LAP), SNXB:LAP molar ratio 10:1, separate experiments) of the same compound?
**A.** 0.512 and 0.728

**Q.** What about the “IC50 CI (Combination Index)” value (ER-HER2+ cell line SKBR3) of the same compound?
**A.** 0.611 and 0.674 and 0.470

**Q.** What about the “CI (Combination Index)” value ([2]; Senexin B + lapatinib) of the same compound?
**A.** 0.64

**Q.** What about the “CI (Combination Index)” value [2, 10] of the same compound?
**A.** 0.45

**Q.** And the “IC50 CI (Combination Index)” value ([3]; Senexin B + lapatinib)?
**A.** 0.39

**Q.** And the “IC50 CI (Combination Index)” value [3, 10]?
**A.** 0.04

**Q.** What about the “sensitivity of SKBR3-LT relative to SKBR3” value ([4]; Senexin B combination with lapatinib, fixed ratio) of the same compound?
**A.** essentially unchanged

**Q.** And the “sensitivity of SKBR3-LT relative to SKBR3” value ([4]; Senexin B combination with trastuzumab biosimilar, fixed ratio)?
**A.** essentially unchanged

**Q.** What about the “sensitivity of SKBR3-LT relative to SKBR3” value ([4]; single agent) of the same compound?
**A.** essentially unchanged

**Q.** And the “CI (Combination Index)” value ([5]; Senexin B + lapatinib)?
**A.** 0.647

**Q.** And the “response of cells to combination” value [5, 11]?
**A.** significant response

**Q.** And the “response of cells to drug alone” value [5]?
**A.** weak response

**Q.** What about the “CI (Combination Index)” value ([6]; Senexin B + lapatinib) of the same compound?
**A.** 0.314

**Q.** And the “response of cells to combination” value [6, 11]?
**A.** significant response

**Q.** What about the “response of cells to drug alone” value [6] of the same compound?
**A.** weak response

**Q.** What about the “cell growth after 16 weeks of continuous treatment” value (from here on “cell growth after 16 weeks”) [7, 12] of the same compound?
**A.** did not grow

**Q.** What about the “inhibition of cell growth after 1 week of treatment” value (from here on “inhibition of cell growth”) [7] of the same compound?
**A.** limited effect

**Q.** What about the “cell growth after 16 weeks” value [8, 12] of the same compound?
**A.** did not grow

**Q.** And the “inhibition of cell growth” value [8]?
**A.** limited effect

**Q.** And the “emergence of resistant colonies after 35 days of treatment” value ([9]; combination of 10 mM erlotinib and 1 mM Senexin B)?
**A.** prevented the emergence of resistance

**Q.** For `C#Cc1cccc(Nc2ncnc3cc(OCCOC)c(OCCOC)cc23)c1` [erlotinib], which “emergence of resistant colonies after 35 days of treatment” value ([9]; 10 mM erlotinib alone) is on record?
**A.** erlotinib-resistant colonies emerged

**Q.** What about the “initial effect on cell growth” value ([9]; 10 mM erlotinib alone) of the same compound?
**A.** initially inhibited cell growth

**Q.** Which “response of cells to drug alone” value ([3]; single agent) does the source give for `CS(=O)(=O)CCNCc1ccc(-c2ccc3ncnc(Nc4ccc(OCc5cccc(F)c5)c(Cl)c4)c3c2)o1` [lapatinib] here?
**A.** resistant

**Q.** And the “sensitivity of SKBR3-LT relative to SKBR3” value ([4]; single agent)?
**A.** less sensitive

**Q.** And the “response of cells to drug alone” value [5]?
**A.** weak response

**Q.** And the “response of cells to drug alone” value [6]?
**A.** weak response

**Q.** And the “cell growth after 16 weeks” value ([7]; 250 nM lapatinib alone)?
**A.** actively proliferating

**Q.** What about the “time by which outgrowth of treated cells became noticeable” value [7, 13] of the same compound?
**A.** ≤ 4 week

**Q.** What about the “inhibition of cell growth” value [7] of the same compound?
**A.** extremely effective

**Q.** What about the “cell growth after 16 weeks” value ([8]; 250 nM lapatinib alone) of the same compound?
**A.** actively proliferating

**Q.** What about the “time by which outgrowth of treated cells became noticeable” value [8, 13] of the same compound?
**A.** ≤ 8 week

**Q.** And the “inhibition of cell growth” value [8]?
**A.** extremely effective
